Laboratory results taken from US20110045101A1, “FUNGICIDAL SUBSTITUTED AZOLES” (E.I. Du Pont De Nemours and Company, priority 2009, published 2011).
Marks after values point to notes of the source that are not given here.

Tests used:
Type in all cases: in vivo
Septoria nodorum = experiment: Test F: wheat glume blotch on wheat seedlings, sprayed the day before inoculation, visual disease rating; conditions: 100 = 100% disease control; for pest or weed control at 200 ppm: Parastagonospora nodorum, 264 h
Procedure, shortened: (§1)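 200 ppm run-off spray (500 g/ha equivalent); * = 40 ppm. Vehicle: acetone/water 50/50, 250 ppm Trem® 014.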

[1] = system: Erysiphe graminis f. sp. tritici; experiment: Test J: wheat powdery mildew on wheat seedlings, sprayed the day before inoculation, visual disease rating; conditions: 100 = 100% disease control; for pest or weed control at 200 ppm: Blumeria graminis, 168 h
Procedure, shortened: as §1

Alternaria solani = experiment: Test D: tomato early blight, sprayed the day before inoculation, visual disease rating; conditions: 100 = 100% disease control; for pest or weed control at 200 ppm: Alternaria solani, 168 h
Procedure, shortened: as §1

[2] = system: Puccinia recondita f. sp. tritici; experiment: Test H: wheat leaf rust, test suspension sprayed after inoculation of wheat seedlings, visual disease rating; conditions: 100 = 100% disease control; for pest or weed control at 200 ppm: Puccinia recondita, 96 h
Procedure, shortened: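 Wheat seedlings inoculated with P. recondita spores, held 24 h saturated at 20 °C, then 2 days in growth chamber at 20 °C; compound suspension (acetone/water with Trem 014) sprayed to run-off afterwards. Rated visually; 200 ppm (≈500 g/ha) unless marked *, which denotes 40 ppm.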

Septoria tritici = experiment: Test G: wheat leaf blotch on wheat seedlings, sprayed the day before inoculation, visual disease rating; conditions: 100 = 100% disease control; for pest or weed control at 200 ppm: Zymoseptoria tritici, 504 h
Procedure, shortened: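 Wheat seedlings were sprayed to run-off with test suspension (acetone/water plus surfactant), generally 200 ppm (≈500 g/ha), or 40 ppm where marked. Septoria tritici spores were inoculated the next day; plants were held 48 h at 24°C in saturated atmosphere, then 19 days at 20°C before visual disease rating.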

[3] = system: Puccinia recondita f. sp. tritici; experiment: Test I: wheat leaf rust on wheat seedlings, sprayed the day before inoculation, visual disease rating; conditions: 100 = 100% disease control; for pest or weed control at 200 ppm: Puccinia recondita, 168 h
Procedure, shortened: as §1

Botrytis cinerea = experiment: Test C: tomato Botrytis on tomato seedlings, sprayed the day before inoculation, visual disease rating; conditions: 100 = 100% disease control; for pest or weed control at 200 ppm: Botrytis cinerea, 120 h
Procedure, shortened: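 Tomato seedlings were sprayed until run-off with test suspensions in acetone/water (50/50) carrying 250 ppm polyhydric alcohol ester surfactant. Standard dose was 200 ppm, with 40 ppm for marked entries.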

[4] = 200 ppm, 0 = no control relative to controls
[5] = 40 ppm (marked *), 0 = no control

Structure (SMILES)	Test F disease control rating (Septoria nodorum; [4]) [%]	Test J disease control rating [1, 4] [%]	Test D disease control rating (Alternaria solani; [4]) [%]	Test H disease control rating [2, 4] [%]	Test G disease control rating (Septoria tritici; [4]) [%]	Test I disease control rating [3, 4] [%]	Test C disease control rating (Botrytis cinerea; [4]) [%]	also measured
Fc1cc(F)c(-c2c(Cl)ncn2-c2cccc(OC(F)(F)F)c2)c(F)c1 [compound 586]	0	21	0	0	3	0	0	–
N#Cc1ccc(F)c(-c2c(Cl)nc(Br)n2-c2ccc(Cl)cc2)c1F [Compound 419, 3-[2-bromo-4-chloro-1-(4-chlorophenyl)-1H-imidazol-5-yl]-2,4-difluorobenzonitrile]	–	–	–	–	–	–	–	pest or weed control at 200 ppm (Septoria nodorum; [4]): 100%; pest or weed control at 200 ppm [1, 4]: 99%; pest or weed control at 200 ppm (Alternaria solani; [4]): 100%; pest or weed control at 200 ppm [2, 4]: 0%; pest or weed control at 200 ppm (Septoria tritici; [4]): 100%; pest or weed control at 200 ppm [3, 4]: 97%; pest or weed control at 200 ppm (Botrytis cinerea; [4]): 100%
Fc1ccc(F)c(-c2c(Br)ncn2-c2ccc(Cl)cc2)c1F [compound 330]	0	99	100	9	96	98	100	–
COc1ccc(F)c(-c2c(Cl)nc(C)n2-c2ccc(C#N)cc2)c1F [compound 615]	0	100	100	0	100	99	100	–
COc1cc(F)c(-c2c(Cl)nc(C)n2-c2cccc(OC(F)F)c2)c(F)c1 [compound 588]	100	100	100	100	97	100	100	–
Cc1nc(Cl)n(-c2ccc(Cl)cn2)c1-c1c(F)cccc1F [compound 321]	100	100	100	83	100	100	100	–
CCc1nc(C)n(-c2ccc(Cl)cc2)c1-c1c(F)cccc1F [compound 305]	–	–	–	–	–	–	–	Test F disease control rating (Septoria nodorum; [5]): 0* %; Test J disease control rating [1, 5]: 0* %; Test D disease control rating (Alternaria solani; [5]): 0* %; Test H disease control rating [2, 5]: 11* %; Test G disease control rating (Septoria tritici; [5]): 23* %; Test I disease control rating [3, 5]: 0* %; Test C disease control rating (Botrytis cinerea; [5]): 63* %
COc1cc(F)c(-c2c(Cl)nc(C=NO)n2-c2ccc(F)cc2)c(F)c1 [Compound 349, 4-chloro-5-(2,6-difluoro-4-methoxyphenyl)-1-(4-fluorophenyl)-1H-imidazole-2-carboxaldehyde oxime]	–	–	–	–	–	–	–	pest or weed control at 200 ppm (Septoria nodorum; [4]): 99%; pest or weed control at 200 ppm [1, 4]: 95%; pest or weed control at 200 ppm (Alternaria solani; [4]): 99%; pest or weed control at 200 ppm [2, 4]: 0%; pest or weed control at 200 ppm (Septoria tritici; [4]): 88%; pest or weed control at 200 ppm [3, 4]: 99%; pest or weed control at 200 ppm (Botrytis cinerea; [4]): 100%
COc1ccc(F)c(-c2c(Cl)nc(C)n2-c2cccc(C)c2)c1F [compound 335]	–	–	–	–	–	–	–	Test F disease control rating (Septoria nodorum; [5]): 82* %; Test J disease control rating [1, 5]: 99* %; Test D disease control rating (Alternaria solani; [5]): 100* %; Test H disease control rating [2, 5]: 0* %; Test G disease control rating (Septoria tritici; [5]): 91* %; Test I disease control rating [3, 5]: 99* %; Test C disease control rating (Botrytis cinerea; [5]): 100* %
COc1cc(F)c(-c2c(Cl)nc(Br)n2-c2ccc(F)c(F)c2)c(F)c1 [compound 484]	89	100	100	28	95	100	100	–
COc1ccc(-n2c(Cl)nc(Cl)c2-c2c(F)cccc2F)cn1 [compound 621]	99	100	100	100	98	100	100	–
N#Cc1ccc(F)c(-c2c(Cl)nc(Cl)n2-c2cccc(F)c2)c1F [compound 681]	98	100	100	0	99	99	99	–
Cc1nc(Br)c(-c2ccc(Cl)cc2)n1-c1ccc(F)cc1Cl [compound 338]	80	99	100	0	93	99	100	–
COc1cc(F)c(-c2c(Cl)nc(Br)n2-c2ccc(OC)nc2)c(F)c1 [compound 705]	99	100	100	100	99	100	99	–
Fc1cccc(F)c1-c1c(Cl)nc(Cl)n1-c1cccnc1Cl [compound 617]	0	99	99	100	100	100	99	–
COc1ccc(-n2c(Cl)nc(C)c2-c2c(F)cccc2F)cn1 [compound 718]	97	100	100	99	100	100	100	–
COc1ccc(F)c(-c2c(Cl)nc(Cl)n2-c2cccc(OC(F)F)c2)c1F [compound 400]	99	100	100	0	94	99	100	–
COc1ccc(F)c(-c2c(Cl)nc(C)n2-c2ccc(Cl)nc2)c1F [compound 738]	100	100	100	96	100	100	100	–
CN(C)c1ccc(-n2cnc(Cl)c2-c2c(F)cccc2F)cc1 [compound 635]	–	–	–	–	–	–	–	Test F disease control rating (Septoria nodorum; 40 ppm (marked *)): 0* %; Test J disease control rating ([1]; 40 ppm (marked *)): 0* %; Test D disease control rating (Alternaria solani; 40 ppm (marked *)): 0* %; Test H disease control rating ([2]; 40 ppm (marked *)): 0* %; Test G disease control rating (Septoria tritici; 40 ppm (marked *)): 81* %; Test I disease control rating ([3]; 40 ppm (marked *)): 39* %; Test C disease control rating (Botrytis cinerea; 40 ppm (marked *)): 99* %
COc1ccc(Cl)c(-c2c(Cl)nc(Br)n2-c2ccc(Cl)cc2)c1F [compound 512]	0	99	98	40	98	79	97	–
COc1ccc(F)c(-c2c(Cl)ncn2-c2ccc(F)cc2)c1F [compound 299]	90	99	99	0	97	99	99	–
Cc1nc(Br)c(Cc2c(F)cc(F)cc2F)n1-c1ccc(Cl)cc1 [compound 532]	0	91	0	0	99	99	97	–
COc1cc(F)c(-c2c(Cl)nc(Cl)n2Cc2ccc(Cl)nc2)c(F)c1 [compound 667]	100	76	100	8	99	97	100	–
